In PubChem BioAssay (NCI):
Values joined by “and” are separate entries in the source; they are usually repeats but may differ in a detail not shown here. Equal entries are not always repeated.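 Grown in 96-well plates, cells were treated for 48 hours with each compound at five concentrations. Insufficient inhibition: endpoint recorded as highest concentration tested. GI50: concentration for 50% inhibition of growth. TGI: concentration producing complete growth inhibition.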

How the values were obtained:
Assay in all cases: NCI-60 cell line screen, 48 h
[1] = tested on: ACHN renal
[2] = tested on: HCT-15 colon
[3] = tested on: NCI/ADR-RES ovarian
[4] = tested on: UO-31 renal
[5] = tested on: 786-0 renal
[6] = tested on: A498 renal
[7] = tested on: A549 NSCLC
[8] = tested on: BT-549 breast
[9] = tested on: CCRF-CEM leukemia
[10] = tested on: COLO 205 colon
[11] = tested on: DU-145 prostate
[12] = tested on: EKVX NSCLC
[13] = tested on: HCC-2998 colon
[14] = tested on: HCT-116 colon
[15] = tested on: HL-60(TB) leukemia
[16] = tested on: HOP-62 NSCLC
[17] = tested on: HS 578T breast
[18] = tested on: HT29 colon
[19] = tested on: IGROV1 ovarian
[20] = tested on: K-562 leukemia
[21] = tested on: KM12 colon
[22] = tested on: LOX IMVI melanoma
[23] = tested on: M14 melanoma
[24] = tested on: MALME-3M melanoma
[25] = tested on: MCF7 breast
[26] = tested on: MDA-MB-231 breast
[27] = tested on: MDA-MB-435
[28] = tested on: MOLT-4 leukemia
[29] = tested on: NCI-H226 lung
[30] = tested on: NCI-H23 lung
[31] = tested on: NCI-H460 lung
[32] = tested on: OVCAR-3 ovarian
[33] = tested on: OVCAR-4 ovarian
[34] = tested on: OVCAR-5 ovarian
[35] = tested on: OVCAR-8 ovarian
[36] = tested on: PC-3 prostate
[37] = tested on: RPMI-8226 leukemia
[38] = tested on: SF-295 CNS
[39] = tested on: SF-539 CNS
[40] = tested on: SK-MEL-28 melanoma
[41] = tested on: SK-MEL-5 melanoma
[42] = tested on: SN12C renal
[43] = tested on: SNB-19 CNS
[44] = tested on: SR leukemia
[45] = tested on: SW-620 colon
[46] = tested on: TK-10 renal
[47] = tested on: U251 CNS
[48] = tested on: UACC-257 melanoma
[49] = tested on: CAKI-1 renal
[50] = tested on: HOP-92 NSCLC
[51] = tested on: NCI-H522 lung
[52] = tested on: RXF 393 renal
[53] = tested on: SF-268 CNS
[54] = tested on: SK-MEL-2 melanoma
[55] = tested on: SNB-75 CNS
[56] = tested on: T-47D breast
[57] = tested on: UACC-62 melanoma
[58] = tested on: SK-OV-3 ovarian

Q: For `COc1cc2c(Nc3ccc(NC(=O)Nc4ccc(Cl)c(C(F)(F)F)c4)c(Cl)c3)ncnc2cc1OCCCN1CCN(C)CC1`, which GI50 [1] is on record?
A: 2.24 µM

Q: And the TGI [1]?
A: > 100 µM

Q: And the GI50 [2]?
A: 3.9 µM

Q: What about the TGI [2] of the same compound?
A: > 100 µM

Q: And the GI50 [3]?
A: 54.4 µM

Q: And the TGI [3]?
A: > 100 µM

Q: What about the GI50 [4] of the same compound?
A: > 100 µM

Q: What about the TGI [4] of the same compound?
A: > 100 µM

Q: Which TGI [5] does the source give for `Nc1nc(NNc2cccc(F)c2)cc(=O)[nH]1` here?
A: 37.5 µM

Q: What about the TGI [6] of the same compound?
A: > 100 µM

Q: And the TGI [7]?
A: > 100 µM

Q: What about the TGI [1] of the same compound?
A: > 100 µM

Q: What about the TGI [8] of the same compound?
A: > 100 µM

Q: What about the TGI [9] of the same compound?
A: > 100 µM

Q: What about the TGI [10] of the same compound?
A: 54.3 µM

Q: And the TGI [11]?
A: > 100 µM

Q: What about the TGI [12] of the same compound?
A: > 100 µM

Q: What about the TGI [13] of the same compound?
A: > 100 µM

Q: And the TGI [14]?
A: 61.2 µM

Q: And the TGI [2]?
A: > 100 µM

Q: What about the TGI [15] of the same compound?
A: 59.3 µM

Q: What about the TGI [16] of the same compound?
A: 58.5 µM

Q: And the TGI [17]?
A: > 100 µM

Q: And the TGI [18]?
A: 54.6 µM

Q: And the TGI [19]?
A: > 100 µM

Q: And the TGI [20]?
A: 74 µM

Q: What about the TGI [21] of the same compound?
A: 56.8 µM

Q: What about the TGI [22] of the same compound?
A: 43.2 µM

Q: And the TGI [23]?
A: > 100 µM

Q: And the TGI [24]?
A: > 100 µM

Q: What about the TGI [25] of the same compound?
A: 89.1 µM

Q: What about the TGI [26] of the same compound?
A: > 100 µM

Q: What about the TGI [27] of the same compound?
A: 64.9 µM

Q: What about the TGI [28] of the same compound?
A: > 100 µM

Q: What about the TGI [29] of the same compound?
A: > 100 µM

Q: And the TGI [30]?
A: > 100 µM

Q: And the TGI [31]?
A: > 100 µM

Q: What about the TGI [3] of the same compound?
A: > 100 µM

Q: What about the TGI [32] of the same compound?
A: 51.5 µM

Q: What about the TGI [33] of the same compound?
A: > 100 µM

Q: And the TGI [34]?
A: > 100 µM

Q: What about the TGI [35] of the same compound?
A: > 100 µM

Q: What about the TGI [36] of the same compound?
A: 59.7 µM

Q: And the TGI [37]?
A: > 100 µM

Q: What about the TGI [38] of the same compound?
A: > 100 µM

Q: And the TGI [39]?
A: > 100 µM

Q: And the TGI [40]?
A: > 100 µM

Q: And the TGI [41]?
A: > 100 µM

Q: What about the TGI [42] of the same compound?
A: > 100 µM

Q: What about the TGI [43] of the same compound?
A: > 100 µM

Q: And the TGI [44]?
A: > 100 µM

Q: And the TGI [45]?
A: > 100 µM

Q: What about the TGI [46] of the same compound?
A: > 100 µM

Q: And the TGI [47]?
A: 42.9 µM

Q: What about the TGI [48] of the same compound?
A: > 100 µM

Q: What about the TGI [4] of the same compound?
A: > 100 µM

Q: Which TGI [5] does the source give for `COc1ccccc1/C=C(/C)[N+](=O)[O-]` here?
A: > 100 µM

Q: And the TGI [6]?
A: 21.5 µM and 18.4 µM

Q: And the TGI [7]?
A: 8.66 µM and 5.18 µM

Q: What about the TGI [1] of the same compound?
A: 4.68 µM and 5.46 µM

Q: And the GI50 [49]?
A: 2.13 µM and 0.687 µM

Q: What about the TGI [49] of the same compound?
A: 4.85 µM and 1.92 µM

Q: And the TGI [9]?
A: 13 µM and > 100 µM

Q: What about the TGI [10] of the same compound?
A: 10.3 µM

Q: What about the TGI [11] of the same compound?
A: 3.12 µM and 2.36 µM

Q: And the TGI [12]?
A: 20.1 µM and 12.3 µM

Q: And the GI50 [14]?
A: 5.36 µM and 2.35 µM

Q: And the TGI [2]?
A: 7.43 µM and 5.11 µM

Q: What about the TGI [15] of the same compound?
A: 4.21 µM and 5.4 µM

Q: And the TGI [16]?
A: > 100 µM

Q: And the TGI [50]?
A: 5.72 µM

Q: And the TGI [17]?
A: 29.3 µM and 26.9 µM

Q: What about the TGI [18] of the same compound?
A: 12.6 µM and 9.89 µM

Q: And the TGI [19]?
A: 5.18 µM and 3.72 µM

Q: And the GI50 [20]?
A: 0.688 µM and 1.71 µM

Q: And the TGI [20]?
A: 5.15 µM and 7.34 µM

Q: What about the TGI [21] of the same compound?
A: 10.2 µM and 3.46 µM

Q: And the GI50 [22]?
A: 0.263 µM

Q: What about the TGI [22] of the same compound?
A: 2.1 µM

Q: What about the TGI [23] of the same compound?
A: 25.6 µM and 2.78 µM

Q: What about the TGI [24] of the same compound?
A: 5.72 µM and 3.97 µM

Q: What about the GI50 [25] of the same compound?
A: 0.593 µM

Q: And the TGI [25]?
A: > 100 µM

Q: What about the TGI [26] of the same compound?
A: 17.7 µM and 7.87 µM

Q: And the TGI [27]?
A: 9.18 µM and 3.64 µM

Q: And the TGI [28]?
A: 0.598 µM and 1.5 µM

Q: What about the TGI [29] of the same compound?
A: 4.22 µM and 3.64 µM

Q: And the TGI [30]?
A: 5.81 µM

Q: And the GI50 [31]?
A: 4.07 µM and 1.94 µM

Q: And the TGI [51]?
A: 2.91 µM and 3.2 µM

Q: What about the TGI [3] of the same compound?
A: 8.69 µM

Q: And the TGI [32]?
A: 3.15 µM and 2.68 µM

Q: What about the TGI [33] of the same compound?
A: 23.6 µM and 14.8 µM

Q: What about the GI50 [34] of the same compound?
A: 2.89 µM and 6.42 µM

Q: What about the TGI [34] of the same compound?
A: 13.4 µM and 27.3 µM

Q: What about the TGI [35] of the same compound?
A: 4 µM and 4.24 µM

Q: What about the TGI [36] of the same compound?
A: 6.5 µM and 5.37 µM

Q: And the GI50 [37]?
A: 0.282 µM and 0.608 µM

Q: And the GI50 [52]?
A: 1.74 µM

Q: What about the TGI [52] of the same compound?
A: 4.74 µM

Q: And the GI50 [53]?
A: 5.87 µM and 2.18 µM

Q: What about the TGI [53] of the same compound?
A: 30.4 µM and 4.94 µM

Q: And the GI50 [38]?
A: 5.31 µM and 2.53 µM

Q: What about the TGI [38] of the same compound?
A: 20 µM and 6.33 µM

Q: What about the TGI [39] of the same compound?
A: 6.6 µM and 3.71 µM

Q: What about the TGI [54] of the same compound?
A: 5.01 µM and 4.64 µM

Q: What about the TGI [40] of the same compound?
A: 5.64 µM and 4.97 µM

Q: And the TGI [41]?
A: 5.1 µM and 3.59 µM

Q: And the TGI [42]?
A: 4.96 µM and 4.41 µM

Q: What about the TGI [43] of the same compound?
A: 15.1 µM and 5.77 µM

Q: What about the GI50 [55] of the same compound?
A: 14.1 µM and 6.99 µM

Q: What about the TGI [55] of the same compound?
A: > 100 µM and 54.7 µM

Q: What about the GI50 [44] of the same compound?
A: 0.237 µM and 1.5 µM

Q: And the TGI [44]?
A: 1.61 µM and 5.08 µM

Q: And the TGI [45]?
A: 43.1 µM

Q: And the TGI [56]?
A: 4.64 µM and 3.37 µM

Q: And the TGI [46]?
A: 13 µM and 4.21 µM

Q: And the TGI [47]?
A: 4.19 µM and 3.43 µM

Q: What about the TGI [48] of the same compound?
A: 3.4 µM and 3.53 µM

Q: What about the TGI [57] of the same compound?
A: 3.93 µM and 3.12 µM

Q: What about the TGI [4] of the same compound?
A: 3.36 µM and 3.39 µM

Q: Which results are given for `CCN(CC)c1ccc2nc3ccc(N=Nc4ccc(N(C)C)cc4)cc3[n+](-c3ccccc3)c2c1`?
A: GI50 [5]: 0.247 µM; TGI [5]: 2.39 µM; GI50 [8]: 0.424 µM; TGI [8]: 2.57 µM; GI50 [49]: 0.146 µM; TGI [49]: 0.434 µM; GI50 [15]: 0.0739 µM; TGI [15]: 0.89 µM; GI50 [50]: 0.17 µM; TGI [50]: 0.811 µM; GI50 [17]: 0.448 µM; TGI [17]: > 100 µM; GI50 [19]: 0.0934 µM; TGI [19]: 1.53 µM; GI50 [26]: 0.0831 µM; TGI [26]: 0.426 µM; GI50 [30]: 0.0809 µM; TGI [30]: 1.37 µM; GI50 [33]: 0.0243 µM; TGI [33]: 0.0929 µM; GI50 [35]: 0.11 µM; TGI [35]: 1.48 µM; GI50 [36]: 0.156 µM; TGI [36]: 2.56 µM; GI50 [37]: 0.0314 µM; TGI [37]: 1.35 µM; GI50 [38]: 0.0376 µM; TGI [38]: 0.191 µM; GI50 [54]: 0.369 µM; TGI [54]: 2.05 µM; GI50 [58]: 0.39 µM; TGI [58]: 13.7 µM; GI50 [46]: 0.389 µM; TGI [46]: 2.1 µM
